What was measured:
mGAT3 = molecular target: T1, mGAT3 (Mus musculus, UniProt P31650); assay: [3H]GABA uptake at mGAT3 stably expressed in HEK-293 cells; assay type: cell-based; conditions: N=3
T1 construct: expressed in transfected cells
Method: (§1) The HEK-293 and Flp-In CHO cell lines stably expressing mouse (m) and human (h) GATs, respectively, have been described previously and were cultured accordingly. The tsA201 cell line was used for transient expression while the MDCK II cell line express BGT1 endogenously. Both cell lines were cultured as described. tsA201 cells were transfected with DNA constructs (8 μg per 10 cm dish if not otherwise mentioned) using 40 μL PolyFect transfection reagent according to the manufacturer’s protocol (Qiagen, Venlo, Netherlands). The DNA constructs encoding hBGT1, hGAT1-3 [36], the mutated constructs hBGT1 Q299 and hGAT3 L314Q described previously, and hBGT Y453A were synthesized and sequence validated by Genscript (NJ, USA).
(§2) The [^3H]GABA competition uptake assay was performed as previously described. A minor change, however, was introduced for uptake in MDCK II cells, in which 100 nM [^3H]GABA was used for a 15 min incubation period at 37 °C instead of 30 nM [^3H]GABA and 3 min incubation. Studies related to the inhibition curves with GABA and BPDBA at hBGT1 were obtained both with and without the presence of 10 μM ATP during the [^3H]GABA uptake assay.
(§3) The [^3H]GABA uptake data was normalized to the percentage of total uptake in the individual experiments in the presence of the lowest compound concentration or no compound present. […]

hBGT1 Q299L = molecular target: T2, hBGT1 Q299L (Homo sapiens, UniProt P48065, Q299L); assay: [3H]GABA uptake at hBGT1 Q299L mutant in tsA201 cells; assay type: cell-based; conditions: data not shown
T2 construct: expressed in transfected cells; host or cells: tsA201 (transient)
Method: as §1, §2, §3

hBGT1 Y453A = molecular target: T3, hBGT1 Y453A (Homo sapiens, UniProt P48065, Y453A); assay: [3H]GABA uptake at hBGT1 Y453A mutant in tsA201 cells; assay type: cell-based; conditions: data not shown
T3 construct: host or cells: tsA201 (transient)
Method: as §1, §2, §3

hGAT3 = molecular target: T4, hGAT3 (Homo sapiens, UniProt P48066); assay: [3H]GABA uptake at hGAT3 transiently expressed in tsA201 cells; assay type: cell-based; conditions: 30 nM [3H]GABA, 3 min, F test P < 0.05
T4 construct: expressed in transfected cells
T4 sequence (P48066 1-632): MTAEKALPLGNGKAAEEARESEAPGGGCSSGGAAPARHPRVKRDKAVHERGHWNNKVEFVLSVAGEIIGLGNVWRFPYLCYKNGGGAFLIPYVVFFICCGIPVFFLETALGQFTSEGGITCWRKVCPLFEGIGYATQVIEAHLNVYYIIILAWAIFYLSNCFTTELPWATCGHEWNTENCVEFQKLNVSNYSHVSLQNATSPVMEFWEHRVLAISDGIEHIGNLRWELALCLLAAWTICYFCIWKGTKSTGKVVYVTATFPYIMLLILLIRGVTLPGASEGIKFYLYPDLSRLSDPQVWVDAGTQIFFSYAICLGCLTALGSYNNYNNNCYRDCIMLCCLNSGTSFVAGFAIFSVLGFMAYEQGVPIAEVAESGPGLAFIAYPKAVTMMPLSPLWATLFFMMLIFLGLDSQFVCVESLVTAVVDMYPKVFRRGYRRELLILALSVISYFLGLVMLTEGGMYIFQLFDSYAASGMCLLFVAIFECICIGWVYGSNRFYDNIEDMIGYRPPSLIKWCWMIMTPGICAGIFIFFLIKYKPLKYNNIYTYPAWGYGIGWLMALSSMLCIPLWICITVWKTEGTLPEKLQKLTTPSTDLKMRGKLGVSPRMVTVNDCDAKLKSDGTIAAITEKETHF
Method: as §1, §2, §3

5-HT1A = molecular target: T5, 5-HT1A (Homo sapiens, UniProt P08908); assay: NIMH PDSP radioligand binding, 5-HT1A; conditions: radioligand [3H]8-OH-PDAT, n=4
T5 construct: purchased NIMH Psychoactive Drug Screening Program (PDSP)

5-HT1E = molecular target: T6, 5-HT1E (Homo sapiens, UniProt P28566); assay: NIMH PDSP radioligand binding, 5-HT1E; conditions: radioligand [3H]5-HT, n=4
T6 construct: purchased NIMH Psychoactive Drug Screening Program (PDSP)

5-HT2B = molecular target: T7, 5-HT2B (Homo sapiens, UniProt P41595); assay: NIMH PDSP radioligand binding, 5-HT2B; conditions: radioligand [3H]LSD
T7 construct: NIMH PDSP (screening service)

5-HT7 = molecular target: T8, 5-HT7 (Homo sapiens, UniProt P34969); assay: NIMH PDSP radioligand binding, 5-HT7; conditions: radioligand [3H]LSD, n=4
T8 construct: purchased NIMH Psychoactive Drug Screening Program (PDSP)

D1 = molecular target: T9, D1 (Homo sapiens, UniProt P21728); assay: NIMH PDSP radioligand binding, D1; conditions: radioligand [3H]SCH23390, n=4
T9 construct: purchased NIMH Psychoactive Drug Screening Program (PDSP)

Alpha1A = molecular target: T10, Alpha1A (Homo sapiens, UniProt P35348); assay: NIMH PDSP radioligand binding, Alpha1A; conditions: radioligand [3H]prazosine, n=4
T10 construct: purchased NIMH Psychoactive Drug Screening Program (PDSP)

DOR = molecular target: T11, DOR (Homo sapiens, UniProt P41143); assay: NIMH PDSP radioligand binding, DOR; conditions: radioligand [3H]DADLE, n=4
T11 construct: purchased NIMH Psychoactive Drug Screening Program (PDSP)

KOR = molecular target: T12, KOR (Homo sapiens, UniProt P41145); assay: NIMH PDSP radioligand binding, KOR; conditions: radioligand [3H]U69593, n=4
T12 construct: purchased NIMH Psychoactive Drug Screening Program (PDSP)
T12 sequence (P41145 whole entry): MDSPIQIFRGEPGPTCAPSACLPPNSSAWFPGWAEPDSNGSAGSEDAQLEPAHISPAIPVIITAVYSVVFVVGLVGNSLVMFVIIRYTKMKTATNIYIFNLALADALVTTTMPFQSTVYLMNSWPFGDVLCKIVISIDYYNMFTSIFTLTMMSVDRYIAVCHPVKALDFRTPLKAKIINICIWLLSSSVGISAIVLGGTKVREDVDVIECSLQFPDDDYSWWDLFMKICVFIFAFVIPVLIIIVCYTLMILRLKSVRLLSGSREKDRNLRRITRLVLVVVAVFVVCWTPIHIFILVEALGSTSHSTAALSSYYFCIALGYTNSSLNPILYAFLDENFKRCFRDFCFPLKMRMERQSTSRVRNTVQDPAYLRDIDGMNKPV

T7 sequence (P41595 whole entry, species assumed): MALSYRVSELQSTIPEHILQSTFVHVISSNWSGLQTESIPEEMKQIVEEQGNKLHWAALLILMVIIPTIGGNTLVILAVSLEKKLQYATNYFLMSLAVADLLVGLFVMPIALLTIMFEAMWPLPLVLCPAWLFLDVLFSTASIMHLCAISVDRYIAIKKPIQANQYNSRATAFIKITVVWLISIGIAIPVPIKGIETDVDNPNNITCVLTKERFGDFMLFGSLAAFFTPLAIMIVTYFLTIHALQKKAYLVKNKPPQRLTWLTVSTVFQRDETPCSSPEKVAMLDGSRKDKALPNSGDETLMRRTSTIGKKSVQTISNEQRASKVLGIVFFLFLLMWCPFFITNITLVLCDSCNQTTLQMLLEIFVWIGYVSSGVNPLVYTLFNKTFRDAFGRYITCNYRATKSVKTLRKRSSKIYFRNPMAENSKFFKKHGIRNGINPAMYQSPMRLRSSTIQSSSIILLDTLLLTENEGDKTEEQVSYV
T1 sequence (P31650 whole entry): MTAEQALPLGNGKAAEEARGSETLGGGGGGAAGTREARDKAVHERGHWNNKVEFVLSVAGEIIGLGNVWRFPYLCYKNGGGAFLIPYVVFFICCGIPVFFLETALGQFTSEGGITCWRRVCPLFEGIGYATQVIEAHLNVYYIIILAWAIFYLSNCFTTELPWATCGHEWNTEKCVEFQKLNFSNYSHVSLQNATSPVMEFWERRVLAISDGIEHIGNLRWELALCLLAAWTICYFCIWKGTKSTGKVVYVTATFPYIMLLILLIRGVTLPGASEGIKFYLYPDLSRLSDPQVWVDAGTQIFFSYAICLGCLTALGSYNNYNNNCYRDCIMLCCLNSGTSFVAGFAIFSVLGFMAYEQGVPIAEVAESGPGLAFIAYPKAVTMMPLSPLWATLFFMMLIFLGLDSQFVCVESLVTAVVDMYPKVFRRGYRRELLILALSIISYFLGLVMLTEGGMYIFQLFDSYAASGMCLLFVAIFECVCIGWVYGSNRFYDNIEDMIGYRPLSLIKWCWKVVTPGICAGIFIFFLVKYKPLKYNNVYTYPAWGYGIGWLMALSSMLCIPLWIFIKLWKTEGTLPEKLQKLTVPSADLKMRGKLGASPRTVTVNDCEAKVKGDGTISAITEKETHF
T9 sequence (P21728 whole entry): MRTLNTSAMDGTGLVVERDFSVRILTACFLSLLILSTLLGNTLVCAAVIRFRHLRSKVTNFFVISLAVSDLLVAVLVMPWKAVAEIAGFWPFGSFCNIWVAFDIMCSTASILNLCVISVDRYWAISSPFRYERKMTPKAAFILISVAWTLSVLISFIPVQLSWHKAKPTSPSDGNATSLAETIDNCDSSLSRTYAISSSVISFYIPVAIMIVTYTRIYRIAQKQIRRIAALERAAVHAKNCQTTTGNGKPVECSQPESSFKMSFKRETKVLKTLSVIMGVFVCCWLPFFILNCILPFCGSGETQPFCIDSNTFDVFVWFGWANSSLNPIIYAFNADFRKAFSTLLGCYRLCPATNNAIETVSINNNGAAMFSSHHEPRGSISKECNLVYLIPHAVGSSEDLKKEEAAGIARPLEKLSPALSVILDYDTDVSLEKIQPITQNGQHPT
T3 sequence (P48065 whole entry Y453A): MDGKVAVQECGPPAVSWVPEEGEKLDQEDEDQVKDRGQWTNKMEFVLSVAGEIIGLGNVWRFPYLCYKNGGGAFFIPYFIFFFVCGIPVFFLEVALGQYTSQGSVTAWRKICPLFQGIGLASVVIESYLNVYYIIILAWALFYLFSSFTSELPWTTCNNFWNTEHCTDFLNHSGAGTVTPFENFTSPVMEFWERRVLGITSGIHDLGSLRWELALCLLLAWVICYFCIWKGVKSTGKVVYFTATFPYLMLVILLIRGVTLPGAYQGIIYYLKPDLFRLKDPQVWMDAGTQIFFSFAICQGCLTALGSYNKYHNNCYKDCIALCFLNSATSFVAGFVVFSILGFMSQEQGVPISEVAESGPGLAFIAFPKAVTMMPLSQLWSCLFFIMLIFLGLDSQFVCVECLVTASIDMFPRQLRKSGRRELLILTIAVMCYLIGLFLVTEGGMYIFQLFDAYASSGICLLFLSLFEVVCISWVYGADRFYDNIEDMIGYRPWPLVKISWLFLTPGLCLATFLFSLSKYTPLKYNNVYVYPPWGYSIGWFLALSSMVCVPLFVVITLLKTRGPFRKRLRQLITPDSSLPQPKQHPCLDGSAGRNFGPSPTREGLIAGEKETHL
T2 sequence (P48065 whole entry Q299L): as the sequence (P48065 whole entry Y453A) above, with Q299L, A453Y counted along it
T11 sequence (P41143 whole entry): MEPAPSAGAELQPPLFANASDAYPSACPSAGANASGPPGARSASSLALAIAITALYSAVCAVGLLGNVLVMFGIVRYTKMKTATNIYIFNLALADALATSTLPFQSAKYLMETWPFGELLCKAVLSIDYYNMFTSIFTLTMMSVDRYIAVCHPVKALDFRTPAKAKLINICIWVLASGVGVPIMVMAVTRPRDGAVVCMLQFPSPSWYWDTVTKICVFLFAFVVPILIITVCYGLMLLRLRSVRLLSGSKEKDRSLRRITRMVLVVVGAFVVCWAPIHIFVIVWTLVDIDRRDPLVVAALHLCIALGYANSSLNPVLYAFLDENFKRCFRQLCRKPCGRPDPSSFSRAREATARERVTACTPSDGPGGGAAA
T5 sequence (P08908 whole entry): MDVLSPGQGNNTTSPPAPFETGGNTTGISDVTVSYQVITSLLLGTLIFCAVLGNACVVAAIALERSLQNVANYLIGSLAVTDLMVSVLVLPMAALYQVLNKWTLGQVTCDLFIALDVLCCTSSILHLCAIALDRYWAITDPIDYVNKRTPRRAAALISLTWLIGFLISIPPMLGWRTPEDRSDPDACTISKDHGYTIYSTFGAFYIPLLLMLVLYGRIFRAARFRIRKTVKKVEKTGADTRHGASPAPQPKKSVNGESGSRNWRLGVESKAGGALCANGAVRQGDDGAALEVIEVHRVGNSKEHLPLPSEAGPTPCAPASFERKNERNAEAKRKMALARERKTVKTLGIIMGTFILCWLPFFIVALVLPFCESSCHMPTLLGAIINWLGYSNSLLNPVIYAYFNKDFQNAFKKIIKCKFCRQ
T6 sequence (P28566 whole entry): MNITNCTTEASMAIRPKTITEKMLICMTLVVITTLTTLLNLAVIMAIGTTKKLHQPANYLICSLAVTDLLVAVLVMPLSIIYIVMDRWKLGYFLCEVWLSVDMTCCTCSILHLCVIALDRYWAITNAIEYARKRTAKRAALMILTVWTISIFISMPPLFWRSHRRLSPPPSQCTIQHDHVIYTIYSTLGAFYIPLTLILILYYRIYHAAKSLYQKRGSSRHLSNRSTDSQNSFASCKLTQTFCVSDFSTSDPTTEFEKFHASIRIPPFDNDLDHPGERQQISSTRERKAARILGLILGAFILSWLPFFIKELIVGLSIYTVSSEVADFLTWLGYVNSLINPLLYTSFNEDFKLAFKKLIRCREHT
T10 sequence (P35348 whole entry): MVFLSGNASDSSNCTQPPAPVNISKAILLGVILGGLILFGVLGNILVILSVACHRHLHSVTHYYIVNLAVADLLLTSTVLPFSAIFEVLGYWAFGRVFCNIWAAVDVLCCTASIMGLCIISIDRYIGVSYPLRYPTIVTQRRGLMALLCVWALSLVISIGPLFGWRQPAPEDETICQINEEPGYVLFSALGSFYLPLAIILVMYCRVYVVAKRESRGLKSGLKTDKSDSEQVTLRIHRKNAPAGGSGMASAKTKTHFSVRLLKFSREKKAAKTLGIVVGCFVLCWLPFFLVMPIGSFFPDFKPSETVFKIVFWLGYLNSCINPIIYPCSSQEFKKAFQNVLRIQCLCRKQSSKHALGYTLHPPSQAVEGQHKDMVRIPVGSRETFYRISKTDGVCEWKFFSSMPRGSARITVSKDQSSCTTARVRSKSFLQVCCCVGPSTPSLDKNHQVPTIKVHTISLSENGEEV
T8 sequence (P34969 whole entry): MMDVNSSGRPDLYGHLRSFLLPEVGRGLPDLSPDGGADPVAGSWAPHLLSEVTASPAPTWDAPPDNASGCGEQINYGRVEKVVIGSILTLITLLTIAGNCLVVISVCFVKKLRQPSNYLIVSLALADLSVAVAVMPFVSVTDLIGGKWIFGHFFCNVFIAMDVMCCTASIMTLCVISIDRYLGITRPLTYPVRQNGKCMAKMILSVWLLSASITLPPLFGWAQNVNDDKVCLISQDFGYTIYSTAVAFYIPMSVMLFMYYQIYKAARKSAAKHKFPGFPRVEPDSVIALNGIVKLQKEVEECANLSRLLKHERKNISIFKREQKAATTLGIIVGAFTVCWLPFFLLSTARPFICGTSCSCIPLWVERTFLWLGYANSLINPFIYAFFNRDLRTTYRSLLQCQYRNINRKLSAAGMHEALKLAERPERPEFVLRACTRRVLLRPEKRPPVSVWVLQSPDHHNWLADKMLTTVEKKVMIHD

With `Cc1ccsc1C(=CCCN(C)[C@H]1CCCC[C@H]1C(=O)O)c1sccc1C` [SBV2-114, (1R,2S)-2-((4,4-bis(3-methylthiophen-2-yl)but-3-en-yl)(methyl)amino)cyclohexanecarboxylic acid] the IC50 (mGAT3; ambiguous fit) was over 1000 µM, the Fit (mGAT3; preferred model) was “Ambiguous” and the “inhibition profile and activity at hBGT1 Q299L” value (hBGT1 Q299L) was “clear biphasic inhibition profile and no significant altered activity”. For the same molecule, the “activity at hBGT1 Y453A” value (hBGT1 Y453A) was “did not show the expected decrease in activity”, the preferred fit (hGAT3) was “biphasic fit” and the inhibition at 10 µM (5-HT1A) was -7.9%. For the same molecule, the inhibition at 10 µM (5-HT1E) was -12.9%, the inhibition at 10 µM (5-HT2B; 10 μM, n=4) was 96.8% and the Ki (5-HT2B; full curve) was 0.42 µM. The inhibition at 10 µM (5-HT7) was 14.1%, the inhibition at 10 µM (D1) was 14% and the inhibition at 10 µM (Alpha1A) was 0.1%. For the same molecule, the inhibition at 10 µM (DOR) was 36.6% and the inhibition at 10 µM (KOR) was 40.8%.
